{"source": "patent US10772886B2", "about": "“CXCR-2 inhibitors for treating crystal arthropathy disorders” (ARDEA BIOSCIENCES, INC., priority 2016, dated 2020)", "key": {"[1]": {"tested_on": "neutrophils", "experiment": "Cell migration (chemotaxis) assay, neutrophil counts", "format": "cell-based", "conditions": "10 μM; MSU-conditioned media; FIG. 1A"}, "[2]": {"biological_target": "T1, CXCR-2 (Homo sapiens, UniProt P25025)", "T1 sequence (P25025 1-360)": "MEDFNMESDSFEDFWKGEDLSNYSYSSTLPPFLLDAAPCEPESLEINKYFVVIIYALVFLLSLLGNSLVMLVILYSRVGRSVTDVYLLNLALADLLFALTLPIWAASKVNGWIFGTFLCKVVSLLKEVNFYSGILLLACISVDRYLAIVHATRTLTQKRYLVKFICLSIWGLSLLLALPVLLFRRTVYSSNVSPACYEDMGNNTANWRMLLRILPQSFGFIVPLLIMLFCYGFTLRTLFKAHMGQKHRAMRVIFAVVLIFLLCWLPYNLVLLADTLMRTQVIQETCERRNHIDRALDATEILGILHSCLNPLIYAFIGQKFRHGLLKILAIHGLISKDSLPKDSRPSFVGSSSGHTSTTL", "conditions": "cited from earlier work"}, "[3]": {"tested_on": "PBMCs", "experiment": "Cell migration (chemotaxis) assay, PBMC counts", "format": "cell-based", "conditions": "10 μM; MSU crystal conditioned media; FIG. 1B", "description": "Primary blood monocytes (PMBC) were obtained from the lymphocyte layer (buffy coat) of peripheral blood from normal donors. Each leukopack (Interstate Blood Bank) was diluted with an equal volume of PBS, and 35 mL of blood preparation was over-laid onto 15 mL of Ficoll-Paque™ PLUS (GE Healthcare Bio-Sciences). Tubes were centrifuged at 700×g without breaks for 30 minutes at room temperature. The buffy coat interface was removed, added to PBS (40 mL), and centrifuged at 300×g. Any remaining erythrocytes in the cell pellet were lysed by incubating cells in red blood cell lysis buffer (10 mL, R&D Systems) for 10 minutes at room temperature. Following lysis, PBS (40 mL) was added and the cells centrifuged for 5 minutes at 200×g. The pellet was washed once with PBS and re-suspended in complete RPMI and seeded onto a BD Falcon™ 100 mm tissue culture dish (Cat. No. 353003). After one hour, the media was aspirated and the adherent cells (predominantly monocytes) were harvested using a cell scraper and used in chemotaxis assays. Chemotaxis was assayed in 48-well plates with BD Falcon FluoroBlok Multiwell inserts with 3 μm pores (Cat. No. 351161 or 351162) coated with hFN. […] Fluorescence emitted from cells that had migrated to the bottom surface of the insert was measured at various time points. Cells labeled with Calcein AM were read at 485/530 nm (Ex/Em) wavelength. […]"}}, "data": [{"smiles": "O=C(Nc1ccc(Cl)c(S(=O)(=O)N2CCNCC2)c1O)Nc1cccc(F)c1Cl", "note": "[Compound 1, 1-(4-chloro-2-hydroxy-3-(piperazin-1-ylsulfonyl)phenyl)-3-(2-chloro-3-fluorophenyl)urea]", "values": [{"measurement": "inhibition of migration in neutrophils", "setting": "[1]", "value": "significant inhibition of migration"}, {"measurement": "inhibit CXCR-2", "setting": "[2]", "value": "shown to inhibit CXCR-2"}, {"measurement": "inhibition in migration in PBMCs", "setting": "[3]", "value": "significant inhibition in migration"}]}]}
